Measurements taken from patent US20250188457A1, “COMPOSITIONS AND METHODS FOR THE TREATMENT OF GLIOBLASTOMA BY INHIBITION OF THE TFPI2-CD51-STAT6 SIGNALING AXIS” (Northwestern University, priority 2023, published 2025).

Columns and labels:
GSC23 and GSC262 cells [1] = test: Tumorsphere formation assay (GSC self-renewal); type: cell-based, human; conditions: GSC23 and GSC262 with TFPI2 OE plasmid; JNK-IN-8 10 nM, WP1066 20 nM
Description: The tumorsphere formation assay was performed (Ref. 79; incorporated by reference in its entirety). GSCs were treated with different concentrations of recombinant TFPI2 protein for 24 hrs with or without inhibition of JNK or STAT3, or modified with TFPI21 KO, knockdown or overexpression. After treatment or genetic modifications, cells were centrifuged at 1500 rpm for 5 min and resuspended in the plain cell culture media without additional supplements. Cells were then seeded into a 96-wells plate at 100 cells/well. The number of tumorspheres in each well was imaged and quantified after 10 days.

GSC23 and GSC262 cells [2] = test: Apoptosis analysis of GSCs (Apotracker/PI flow cytometry); type: cell-based, human; conditions: GSC23 and GSC262 with TFPI2 OE plasmid; JNK-IN-8 10 nM, WP1066 20 nM
Description: Cell apoptosis was evaluated using Apotracker Green (BioLegend, #427402) (Ref. 78; incorporated by reference in its entirety). 10^5 cells were collected and stained with Apotracker (1:10 dilution) in […] cell staining buffer. […] propidium iodide (PI) solution (BioLegend, #421301) was added for labeling late apoptotic and necrotic cells. After washing with PBS twice, FITC and PI signals were analyzed in BD FACSymphony flow cytometer.

GSC23 tumor = test: Survival of nude mice implanted with GSC23 expressing TFPI2 overexpression plasmid; type: in vivo, mouse; conditions: 30 mg/kg body weight, i.p., every day, on day 7
Description: Female C57BL/6 (#0000664), nude mice (#007850), and B6.12952(C)-Stat6tm1Gru/J mice (STAT6-KO; #005977) at 6 weeks of age were purchased from the Jackson Laboratory. Mice were grouped by 5 animals and maintained in a pathogen-free IVC System (San Diego, CA) for a week before the experiment. All animal experiments were performed with the approval of the Institutional Animal Care and Use Committee (IACUC) at Northwestern University. The intracranial xenograft tumor models were established (Refs. 11, 61; incorporated by reference in their entireties). Ketamine (100 mg/kg) and xylazine (20 mg/kg) were used for anesthetizing mice through intraperitoneal injection. Then a dental drill was used to open a small hole in the skull 1.2 mm anterior and 3.0 mm lateral to the bregma. A total volume of […] cells in FBS-free DMEM was injected into the right caudate nucleus 3 mm below the surface of the brain using a […] Hamilton syringe with an unbeveled 30-gauge needle. Total three doses of 20 mg/kg meloxicam were administrated before and after surgery through subcutaneous injection. After cancer cell implantation, mice were monitored for recording survival. Mice with neurological deficits or moribund appearance were sacrificed. […]

GSC23 and GSC262 cells [3] = test: CFSE proliferation analysis of GSCs; type: cell-based, human; conditions: GSC23 and GSC262 with TFPI2 OE plasmid; JNK-IN-8 10 nM, WP1066 20 nM
Description: Cell proliferation was assessed using the CellTrace CFSE Cell Proliferation Kit (Invitrogen, #C34554). 10^6 cells were harvested and incubated with CFSE working solution (1:1000) for 20 min at 37° C. The staining was stopped by adding complete cell culture media. After washing, cells were continuously cultured for 5 days in the dark. At the end of the incubation, cells were collected by spinning down at 1500 rpm for 5 min. The cell pellet was resuspended in cell staining buffer for flow cytometry analysis. The percentage of CFSE positive peaks over the undivided peak (generation 0) was analyzed using the ImageJ software.

STAT3 = test: Immunoblot for P-STAT3 and STAT3 in GSCs; type: cell-based, human; conditions: GSC23 and GSC262, TFPI2 OE or TFPI2 recombinant protein 20 ng/ml; JNK-IN-8 10 nM
Description: (§1) The protein expression in cells was determined by western blotting analysis (Ref. 61; incorporated by reference in its entirety). Cells were homogenized in RIPA lysis buffer containing phosphatase/protease cocktail inhibitors (Cell Signaling Technology, #5870). The protein concentration was determined by BCA Protein Assay Kit (Thermo Fisher Scientific, #P123225). Protein solution was mixed with the Leammli sample buffer and heated at 95° C. before loading to SurePAGE gels (GenScript, #M00653). The gels were run at a constant voltage of 80 V and then transferred to 0.2 μm nitrocellulose membrane (Bio-Rad, #1620112) using the Trans-Blot Turbo system (Bio-Rad) with a preprogrammed standard protocol for 30 min. Nitrocellulose membrane was incubated with 5% dry milk to block any unspecific staining. […]

005 GSC and CT2A tumors = test: Survival of C57BL/6 mice implanted with 005 GSCs or CT2A cells; type: in vivo, mouse; conditions: for survival of mice bearing 005 GSC and CT2A tumors, combination with anti-PD1 therapy: anti-PD1 10 mg/kg i.p. on days 11, 14 and 17, MK-0429 30 mg/kg or AS1517499 10 mg/kg i.p. every other day
Description: Female C57BL/6 (#0000664), nude mice (#007850), and B6.12952(C)-Stat6tm1Gru/J mice (STAT6-KO; #005977) at 6 weeks of age were purchased from the Jackson Laboratory. Mice were grouped by 5 animals and maintained in a pathogen-free IVC System (San Diego, CA) for a week before the experiment. All animal experiments were performed with the approval of the Institutional Animal Care and Use Committee (IACUC) at Northwestern University. The intracranial xenograft tumor models were established (Refs. 11, 61; incorporated by reference in their entireties). Ketamine (100 mg/kg) and xylazine (20 mg/kg) were used for anesthetizing mice through intraperitoneal injection. Then a dental drill was used to open a small hole in the skull 1.2 mm anterior and 3.0 mm lateral to the bregma. A total volume of […] cells in FBS-free DMEM was injected into the right caudate nucleus 3 mm below the surface of the brain using a […] Hamilton syringe with an unbeveled 30-gauge needle. Total three doses of 20 mg/kg meloxicam were administrated before and after surgery through subcutaneous injection. After cancer cell implantation, mice were monitored for recording survival. Mice with neurological deficits or moribund appearance were sacrificed. Following the transcardiac perfusion with PBS and 4% paraformaldehyde (PFA), brains were removed and fixed in 4% PFA, and were processed for paraffin-embedded blocks or cryosectioning.

JNK = test: Immunoblot for P-JNK and JNK in GSCs; type: cell-based, human; conditions: GSC23 and GSC262, TFPI2 OE or TFPI2 recombinant protein 20 ng/ml; WP1066 20 nM
Description: as §1

SMILES	self-renewal effect of increasing cellular TFPI2 in GSCs (tumorspheres) (GSC23 and GSC262 cells [1])	apoptotic effect of increasing cellular TFPI2 in GSCs (GSC23 and GSC262 cells [2])	shortening of survival by TFPI2 overexpression in GSC23 tumor-bearing mice (GSC23 tumor)	proliferation effect of increasing cellular TFPI2 in GSCs (GSC23 and GSC262 cells [3])	TFPI2-induced STAT3 activation (P-STAT3) (STAT3)	survival of mice bearing 005 GSC and CT2A tumors, combination with anti-PD1 therapy (005 GSC and CT2A tumors)	survival of mice implanted with 005 GSCs and CT2A cells, inhibitor alone (005 GSC and CT2A tumors; MK-0429 30 mg/kg or AS1517499 10 mg/kg, i.p., every other day, on day 7, Cilengitide dose not given)	TFPI2-induced JNK activation (P-JNK) (JNK)
Cc1cc(NC(=O)c2cccc(NC(=O)/C=C/CN(C)C)c2)ccc1Nc1nccc(-c2cccnc2)n1 [JNK-IN-8]	negated	negated	abolished	negated	blocked			
COc1ccc([C@H](CC(=O)O)N2CCN(CCCc3ccc4c(n3)NCCC4)C2=O)cn1 [MK-0429]						synergized		
CC(C)[C@H]1C(=O)N[C@@H](CCCN=C(N)N)C(=O)NCC(=O)N[C@@H](CC(=O)O)C(=O)N[C@H](Cc2ccccc2)C(=O)N1C [Cilengitide]						enhanced the efficacy	significantly extended the survival	
C[C@H](NC(=O)/C(C#N)=C/c1cccc(Br)n1)c1ccccc1 [WP1066]	negated	negated	abolished	negated				no effect
